In this assay the target is human orexin 2 receptor (Homo sapiens (Human), UniProt O43614). The assay can be described thus: Human orexin 2 receptor Ca2+ mobilization assay (FLIPR, PFSK cells, orexin B 100 nM). To be noted: modified Cheng-Prusoff correction, read-out: OR 2 Kb. It is filed as cell-based. On the procedure: Human Orexin 2 Receptor Ca^2+ Mobilization Assay
Cells were seeded on to 96-well Packard viewplates at a density of 50,000 cells/well and incubated overnight at 37° C., 5% CO2. The cells were dye-loaded with 4 μM Ca^2+ dye Fluo-3AM in serum-free DMEM/F-12 with 2.5 mM probenecid and incubated at 37° C., 5% CO2 for one hour. Cells were pre-incubated with compounds (diluted in DMEM/F-12) for 30 minutes before agonist (orexin B, 100 nM) stimulation. Ligand-induced Ca^2+ release was measured using a Fluorometric Imaging Plate Reader (FLIPR, Molecular Devices, Sunnyvale, Calif.). Functional responses were measured as peak fluorescence intensity minus basal. The concentration of agonist that produced a half-maximal response is represented by the EC50 value. Antagonistic potency values were converted to apparent pKB values using a modified Cheng-Prusoff correction. Apparent pKB=−log IC50/1+[conc agonist/EC50]. Data are expressed as mean±S.E.M, the designation of NT means not tested.
For orientation: Calcium flux is commonly read through the fluorescence of an indicator in the cells.

Molecules are shown by their SMILES.

Chain of human orexin 2 receptor (O43614 whole entry): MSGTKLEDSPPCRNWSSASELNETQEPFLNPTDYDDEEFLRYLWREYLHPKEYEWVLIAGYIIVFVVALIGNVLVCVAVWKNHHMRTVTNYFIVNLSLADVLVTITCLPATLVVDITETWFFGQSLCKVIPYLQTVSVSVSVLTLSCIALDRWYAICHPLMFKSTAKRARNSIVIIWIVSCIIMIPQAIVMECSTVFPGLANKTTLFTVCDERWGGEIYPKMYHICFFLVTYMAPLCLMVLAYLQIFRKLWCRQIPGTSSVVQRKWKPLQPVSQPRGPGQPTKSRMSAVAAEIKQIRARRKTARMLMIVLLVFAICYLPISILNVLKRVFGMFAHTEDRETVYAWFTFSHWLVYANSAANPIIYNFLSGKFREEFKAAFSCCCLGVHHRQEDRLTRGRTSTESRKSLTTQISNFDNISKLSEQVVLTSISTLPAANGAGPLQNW

With `Cc1ccnc(N2CC3CN(C(=O)c4ccccc4-c4cccs4)CC3C2)c1` (centres unmarked) [Example 136, 2-(4-Methylpyridin-2-yl)-5-[(2-thiophen-2-ylphenyl)carbonyl]octahydropyrrolo[3,4-c]pyrrole], the Kb came out at 50 nM.
Take `Cc1cc(C)nc(N2CC3CN(C(=O)c4cccnc4-c4ccn[nH]4)CC3C2)n1` (centres unmarked) [Example 237, (2-(1H-Pyrazol-5-yl)pyridin-3-yl)(5-(4,6-dimethylpyrimidin-2-yl)hexahydropyrrolo[3,4-c]pyrrol-2(1H)-yl)methanone]: the Kb came out at 18 nM.
For the compound `CN(C)c1nc(N2CC3CN(C(=O)c4c(F)cccc4-n4nccn4)CC3C2)cc(C(F)(F)F)n1` (centres unmarked) [Example 106, 4-[5-{[2-Fluoro-6-(2H-1,2,3-triazol-2-yl)phenyl]carbonyl}hexahydropyrrolo[3,4-c]pyrrol-2(1H)-yl]-N,N-dimethyl-6-(trifluoromethyl)pyrimidin-2-amine], the Kb is 20 nM.
In the case of `CN(C)c1cc(N2CC3CN(C(=O)c4ccc(F)cc4-n4nccn4)CC3C2)nc(C(F)(F)F)n1` (centres unmarked) [Example 6, 6-[5-{[4-Fluoro-2-(2H-1,2,3-triazol-2-yl)phenyl]carbonyl}hexahydropyrrolo[3,4-c]pyrrol-2(1H)-yl]-N,N-dimethyl-2-(trifluoromethyl)pyrimidin-4-amine], the Kb turned out to be 25 nM.
The value for `COc1ccc(C(=O)N2CC3CN(c4nccc(-c5ccccc5)n4)CC3C2)c(OC)c1` (centres unmarked) [Example 167, 2-[(2,4-Dimethoxyphenyl)carbonyl]-5-(4-phenylpyrimidin-2-yl)octahydropyrrolo[3,4-c]pyrrole] was 631 nM.
Regarding `Cc1cc(C)nc(N2CC3CN(C(=O)c4ccccc4-c4ncn(C)n4)CC3C2)n1` (centres unmarked) [Example 308, 2-(4,6-Dimethylpyrimidin-2-yl)-5-{[2-(1-methyl-1H-1,2,4-triazol-3-yl)phenyl]carbonyl}octahydropyrrolo[3,4-c]pyrrole], the Kb was determined as 5 nM.
In the case of `Cc1nc(N2CC3CN(C(=O)c4ncccc4-n4nccn4)CC3C2)nc(C)c1C` (centres unmarked) [Example 323, 2-{[3-(2H-1,2,3-Triazol-2-yl)pyridin-2-yl]carbonyl}-5-(4,5,6-trimethylpyrimidin-2-yl)octahydropyrrolo[3,4-c]pyrrole], the Kb worked out at 4 nM.
The value for `Cc1cncc(N2CC3CN(C(=O)c4ccccc4-n4nccn4)CC3C2)n1` (centres unmarked) [Example 211, [5-(6-Methyl-pyrazin-2-yl)-hexahydro-pyrrolo[3,4-c]pyrrol-2-yl]-(2-[1,2,3]triazol-2-yl-phenyl)-methanone] was 25 nM; that for `COc1cc(OC)nc(N2CC3CN(C(=O)c4c(F)cccc4-c4ncccn4)CC3C2)n1` (centres unmarked) [Example 68, 2-(4,6-Dimethoxypyrimidin-2-yl)-5-[(2-fluoro-6-pyrimidin-2-ylphenyl)carbonyl]octahydropyrrolo[3,4-c]pyrrole] was 16 nM; that for `CCOc1cccc(N2CC3CN(C(=O)c4ccccc4-n4nccn4)CC3C2)n1` (centres unmarked) [Example 147, 2-(6-Ethoxypyridin-2-yl)-5-{[2-(2H-1,2,3-triazol-2-yl)phenyl]carbonyl}octahydro pyrrolo[3,4-c]pyrrole] was 63 nM.
With `O=C(c1cc(F)ccc1-c1ncccn1)N1CC2CN(c3cnc4ccccc4n3)CC2C1` (centres unmarked) [Example 146, 2-{5-[(5-Fluoro-2-pyrimidin-2-ylphenyl)carbonyl]hexahydropyrrolo[3,4-c]pyrrol-2(1H)-yl}quinoxaline] the figure was 16 nM.
The value for `COc1ccc(C(=O)N2CC3CN(c4nc(C)cc(C)n4)CC3C2)c(-c2ncccn2)c1` (centres unmarked) [Example 272, (5-(4,6-Dimethylpyrimidin-2-yl)hexahydropyrrolo[3,4-c]pyrrol-2(1H)-yl)(4-methoxy-2-(pyrimidin-2-yl)phenyl)methanone] was 7 nM; that for `COc1cc(OC)nc(N2CC3CN(C(=O)c4ccccc4-c4ccccn4)CC3C2)n1` (centres unmarked) [Example 70, 2-(4,6-Dimethoxypyrimidin-2-yl)-5-[(2-pyridin-2-ylphenyl)carbonyl]octahydro-pyrrolo[3,4-c]pyrrole] was 40 nM.
As for `Cc1cc(C)nc(N2CC3CN(C(=O)c4c(F)cccc4-c4nc(C)no4)CC3C2)n1` (centres unmarked) [Example 315, 2-(4,6-Dimethylpyrimidin-2-yl)-5-{[2-fluoro-6-(3-methyl-1,2,4-oxadiazol-5-yl)phenyl]carbonyl}octahydropyrrolo[3,4-c]pyrrole], the Kb was 10 nM.
With `CN(C)c1nc(N2CC3CN(C(=O)c4cc(F)ccc4-n4nccn4)CC3C2)cc(C(F)(F)F)n1` (centres unmarked) [Example 110, 4-[5-{[5-Fluoro-2-(2H-1,2,3-triazol-2-yl)phenyl]carbonyl}hexahydropyrrolo[3,4-c]pyrrol-2(1H)-yl]-N, N-dimethyl-6-(trifluoromethyl)pyrimidin-2-amine] the figure was 32 nM.
The value for `Cc1cc(C)nc(N2CC3CN(C(=O)c4c(F)cccc4-c4ncccn4)CC3C2)n1` (centres unmarked) [Example 73, 2-(4,6-Dimethylpyrimidin-2-yl)-5-[(2-fluoro-6-pyrimidin-2-ylphenyl)carbonyl]octahydropyrrolo[3,4-c]pyrrole] was 5 nM; that for `Cc1nc(N2CC3CN(C(=O)c4ccccc4-c4ncn(C)n4)CC3C2)ncc1Cl` (centres unmarked) [Example 321, 2-(5-Chloro-4-methylpyrimidin-2-yl)-5-{[2-(1-methyl-1H-1,2,4-triazol-3-yl)phenyl]carbonyl}octahydropyrrolo[3,4-c]pyrrole] was 10 nM; that for `O=C(c1ccccc1-n1nccn1)N1CC2CN(c3nccc(C(F)(F)F)n3)CC2C1` (centres unmarked) [Example 153, 2-{[2-(2H-1,2,3-Triazol-2-yl)phenyl]carbonyl}-5-[4-(trifluoromethyl)pyrimidin-2-yl]octahydropyrrolo[3,4-c]pyrrole] was 40 nM.
With `Cc1cc(C)nc(N2CC3CN(C(=O)c4ccccc4-c4cccc(F)c4)CC3C2)n1` (centres unmarked) [Example 52, 2-(4,6-Dimethylpyrimidin-2-yl)-5-[(3′-fluorobiphenyl-2-yl)carbonyl]octahydro-pyrrolo[3,4-c]pyrrole], the Kb was found to be 50 nM.
Regarding `Cc1ccc(-n2nccn2)c(C(=O)N2CC3CN(c4nccc(-c5ccccc5)n4)CC3C2)c1` (centres unmarked) [Example 127, 2-{[5-Methyl-2-(2H-1,2,3-triazol-2-yl)phenyl]carbonyl}-5-(4-phenylpyrimidin-2-yl)octahydropyrrolo[3,4-c]pyrrole], the Kb came out at 20 nM.
The value for `COc1ccc(-n2nccn2)c(C(=O)N2CC3CN(c4cnc5cc(F)c(F)cc5n4)CC3C2)c1` (centres unmarked) [Example 245, (5-(6,7-Difluoroquinoxalin-2-yl)hexahydropyrrolo[3,4-c]pyrrol-2(1H)-yl)(5-methoxy-2-(2H-1,2,3-triazol-2-yl)phenyl)methanone] was 15 nM; that for `Cc1nc(N2CC3CN(C(=O)c4ccccc4-c4ncn(C)n4)CC3C2)nc(C)c1Cl` (centres unmarked) [Example 320, 2-(5-Chloro-4,6-dimethylpyrimidin-2-yl)-5-{[2-(1-methyl-1H-1,2,4-triazol-3-yl)phenyl]carbonyl}octahydropyrrolo[3,4-c]pyrrole] was 2 nM; that for `CCc1c(C)nc(N2CC3CN(C(=O)c4ncccc4-n4nccn4)CC3C2)nc1C` (centres unmarked) [Example 385, 2-(5-Ethyl-4,6-dimethylpyrimidin-2-yl)-5-{[3-(2H-1,2,3-triazol-2-yl)pyridin-2-yl]carbonyl}octahydropyrrolo[3,4-c]pyrrole] was 8 nM.
